Legend:
TRPV1 mRNA = test: Gene expression of gut chemosensing marker TRPV1 in duodenal and ileal mucosa of weaned piglets fed thymol (real-time PCR); format: in vivo, pig; conditions: for TRPV1 mRNA level, ileum: d14, compared to the control group, P=0.0183
Description: (§1) At the end of the study, 8 animals from each treatment group were sacrificed, samples were collected, and analysed. Duodenal and ileal mucosal scrapings were collected. The duodenum and ileum were longitudinally cut to expose the mucosa, washed with a phosphate-buffered saline solution to remove mucus and digesta, then scraped gently, packed, immediately frozen in liquid nitrogen and stored at -80° C. until the analyses of gene and protein expression. Gene expression was analysed using the method reported by […] et al. [The Journal of Nutrition. 2011; 141:2139-45]. Duodenal and ileal scraping samples obtained on d14 of the study were disrupted by grinding them in liquid nitrogen with mortar and pestle, and then homogenised using a TissueLyser (Qiagen, Hilden, Germany). Total RNA was isolated using a NucleoSpin® RNA Kit (Macherey-Nagel, Duren, Germany) according to the manufacturer's instructions. Genomic DNA contamination was removed by treating the samples with the deoxyribonuclease supplied in the extraction kit ([…], RNase-free; Macherey-Nagel). The RNA yield and quality were determined spectrophotometrically by measuring the absorbance at 260 and 280 nm (A260 and A280 nm, respectively) (Microvolume Mode with SmartPath® Technology, Denovix). […] The average threshold cycle (CT) was determined for each gene of interest, and the geometric average was calculated for HK by assuming that CT is the number of cycles required to reach a fixed arbitrary threshold. Delta CT was calculated, then a modification of the 2^-ΔΔCT method [Livak K J, et al., Methods 2001; 25:402-8] was used to analyse the relative expression (fold changes), which was calculated relative to the control group. […] Animals were blocked in a completely randomised design and data were analysed using GraphPad Prism® software (GraphPad Software, Inc., La Jolla, Calif., USA). Data were analysed using one-way ANOVA followed by Tukey's post hoc test to detect differences among treatments. […]

CB2 mRNA = test: Gene expression of cannabinoid receptor CB2 in duodenal and ileal mucosa of weaned piglets fed thymol (real-time PCR); format: in vivo, pig; conditions: d14, compared to the control group; for CB2 mRNA level, duodenum: P=0.004; for CB2 mRNA level, ileum: P=0.0162
Description: as §1, with “Denovix). One microgram of RNA was reverse transcribed using the iScript cDNA Synthesis Kit (Bio-Rad Laboratories Inc., Hercules, Calif., USA) according to the manufacturer's instructions. Real-time PCR was performed using an iCycler Thermal Cycler system and SybrGreen Supermix (Bio-Rad Laboratories Inc.). The thermocycling protocol provided for an initial denaturation step for 1 minute and 30 seconds at 95° C., followed by 40 denaturation cycles at 95° C. for 15 seconds, and 30 seconds of annealing and extension at 60° C. After amplification, a melt curve analysis was performed for all samples, with slow heating from 55° C. to 95° C. at a rate of 0.5° C./s to validate the absence of non-specific products.” for “Denovix).”

FAAH mRNA = test: Gene expression of ECS enzyme FAAH in duodenal and ileal mucosa of weaned piglets fed thymol (real-time PCR); format: in vivo, pig
Description: (§2) At the end of the study, 8 animals from each treatment group were sacrificed, samples were collected, and analysed. Duodenal and ileal mucosal scrapings were collected. The duodenum and ileum were longitudinally cut to expose the mucosa, washed with a phosphate-buffered saline solution to remove mucus and digesta, then scraped gently, packed, immediately frozen in liquid nitrogen and stored at -80° C. until the analyses of gene and protein expression. Gene expression was analysed using the method reported by […] et al. [The Journal of Nutrition. 2011; 141:2139-45]. […] The RNA yield and quality were determined spectrophotometrically by measuring the absorbance at 260 and 280 nm (A260 and A280 nm, respectively) (Microvolume Mode with SmartPath® Technology, Denovix). […] The average threshold cycle (CT) was determined for each gene of interest, and the geometric average was calculated for HK by assuming that CT is the number of cycles required to reach a fixed arbitrary threshold. Delta CT was calculated, then a modification of the 2^-ΔΔCT method [Livak K J, et al., Methods 2001; 25:402-8] was used to analyse the relative expression (fold changes), which was calculated relative to the control group. […] Animals were blocked in a completely randomised design and data were analysed using GraphPad Prism® software (GraphPad Software, Inc., La Jolla, Calif., USA). […]

[1] = tested on: OR1G1 (Olfactory receptor 1G1) mRNA; test: Gene expression of gut chemosensing marker OR1G1 in duodenal and ileal mucosa of weaned piglets fed thymol (real-time PCR); format: in vivo, pig; conditions: d14, compared to the control group
Description: as §2

[2] = piglets, 14-day experiment, up to 510 mg thymol/kg feed
Description: […] piglets (Duroc—Large White) weaned at 28 days of age and with a body weight (BW) of 7.71±1.00 kg were divided into 40 pens (4 piglets per pen, castrated males and females were placed in separate pens) and randomly assigned to one of the following experimental groups (n=32): control group fed with the basal diet (T1), a group fed with the basal diet supplemented with 25.5 mg of thymol/kg feed (T2), a group fed with the basal diet supplemented with 51 mg of thymol/kg feed (T3), a group fed with the basal diet supplemented with 153 mg of thymol/kg feed (T4) and a group fed with the basal diet supplemented with 510 mg of thymol/kg feed (T5). Thymol was provided in a form embedded (microencapsulated) in a lipid matrix (Vetagro SpA, Reggio Emilia, Italy). Concentrations of thymol were selected to meet or exceed the upper limit of inclusion in food and feed established by the European Agency for the Evaluation of Medicinal Products and for the feed. […] The health condition of the animals was monitored during the study. […] Growth parameters, such as FI, ADFI, ADG and F:G (FI—feed intake; ADFI—Average daily feed intake; ADG—Average daily gain; F:G—Feed to gain ratio), were measured in the animals housed in each pen on day 14 (d14) of the experiment.

CB1 mRNA = test: Gene expression of cannabinoid receptor CB1 in duodenal and ileal mucosa of weaned piglets fed thymol (real-time PCR); format: in vivo, pig; conditions: d14, compared to the control group; for CB1 mRNA level, ileum: P=0.0054
Description: as §1

[3] = group T4, 153 mg of thymol/kg feed
[4] = group T5, 510 mg of thymol/kg feed

Cc1ccc(C(C)C)c(O)c1 [thymol]
TRPV1 mRNA level, ileum (TRPV1 mRNA; group T4, 153 mg thymol/kg feed): increased | TRPV1 mRNA level, ileum (TRPV1 mRNA; group T5, 510 mg thymol/kg feed): increased | TRPV1 mRNA level, duodenum (TRPV1 mRNA; group T5, 510 mg thymol/kg of feed, d14, P=0.0382): increased | CB2 mRNA level, duodenum (CB2 mRNA; [3]): Significantly increased | CB2 mRNA level, ileum (CB2 mRNA; [3]): Significantly increased | CB2 mRNA level, duodenum (CB2 mRNA; [4]): Significantly increased | CB2 mRNA level, ileum (CB2 mRNA; [4]): Significantly increased | FAAH mRNA level, ileum (FAAH mRNA; group T4, 153 mg of thymol/kg feed, d14, compared to the control group, P=0.0028): significantly increased | FAAH mRNA level, duodenum (FAAH mRNA; thymol groups T2-T5 (25.5-510 mg/kg feed), d14): Differences in FAAH mRNA levels were not observed | OR1G1 mRNA level, ileum ([1]; group T4, 153 mg thymol/kg feed, P=0.0235): expressed at higher levels | OR1G1 mRNA level, duodenum ([1]; group T5, 510 mg thymol/kg feed, P=0.0210): expressed at higher levels | mortality [2]: no mortality was recorded | CB1 mRNA level, ileum (CB1 mRNA; [3]): significantly increased | CB1 mRNA level, ileum (CB1 mRNA; [4]): significantly increased | CB1 mRNA level, duodenum (CB1 mRNA; group T5, 510 mg of thymol/kg feed, P=0.0209): significantly increased

From US20230149324A1, “COMPOSITIONS COMPRISING THYMOL AND AMINO ACIDS FOR USE IN THE TREATMENT OF INFLAMMATORY OR FUNCTIONAL INTESTINAL DISORDERS” (VETAGRO INTERNATIONAL S.R.L., priority 2020, published 2023)
